In BindingDB's records for doi:10.1016/j.bmcl.2005.03.024 (Johnson & Johnson Pharmaceutical, 2005):

target: Cyclin-dependent kinase/G2/mitotic-specific cyclin- 1 (Homo sapiens, UniProt P06493); assay: Kinase Inhibition Assay; conditions: not given
Method: The enzyme was assayed with a biotinylated peptide substrate and test compounds in the presence of 10 uM ATP/[gamma-33P]ATP in a streptavidin coated FlashPlate (Perkin-Elmer, Boston, MA). Inhibition of the enzymatic activity due to the compound was measured by observing a reduced amount of 33P-gamma-ATP incorporated into the immobilized peptide relative to untreated controls. Linear regression analysis of the percent of inhibition by the test compound was used to calculate IC50 values.

Sequence of Cyclin-dependent kinase/G2/mitotic-specific cyclin- 1 (P06493 whole entry): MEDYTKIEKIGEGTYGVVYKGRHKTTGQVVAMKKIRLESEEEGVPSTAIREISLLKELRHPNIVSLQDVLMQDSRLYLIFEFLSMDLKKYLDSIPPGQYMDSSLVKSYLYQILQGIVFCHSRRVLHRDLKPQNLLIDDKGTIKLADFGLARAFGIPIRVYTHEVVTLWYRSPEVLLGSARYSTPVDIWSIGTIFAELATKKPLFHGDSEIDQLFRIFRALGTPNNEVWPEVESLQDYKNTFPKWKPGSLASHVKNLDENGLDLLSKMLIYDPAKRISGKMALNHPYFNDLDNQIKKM
Sequence of Cyclin-dependent kinase/G2/mitotic-specific cyclin- 1 (P14635 whole entry, further chain): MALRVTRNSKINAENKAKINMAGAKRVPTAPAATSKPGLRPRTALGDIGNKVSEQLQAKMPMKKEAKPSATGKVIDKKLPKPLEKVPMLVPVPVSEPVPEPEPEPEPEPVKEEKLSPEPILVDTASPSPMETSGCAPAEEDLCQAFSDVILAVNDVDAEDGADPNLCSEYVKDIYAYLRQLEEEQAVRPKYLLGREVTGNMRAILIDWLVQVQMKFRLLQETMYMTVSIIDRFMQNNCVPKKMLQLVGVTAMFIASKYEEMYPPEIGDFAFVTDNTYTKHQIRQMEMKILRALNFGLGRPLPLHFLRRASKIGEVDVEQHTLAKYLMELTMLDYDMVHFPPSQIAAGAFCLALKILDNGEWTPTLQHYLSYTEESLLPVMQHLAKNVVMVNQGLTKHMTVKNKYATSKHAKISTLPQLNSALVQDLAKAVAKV

IC50 [µM] | Compound
> 100 | CCN(CC)S(=O)(=O)c1ccc(Nc2ccc(C(=O)c3ccccc3)c(N)n2)cc1 [4-[(6-amino-5-benzoylpyridin-2-yl)amino]-N,N-diethylbenzene-1-sulfonamide]
> 10 | Nc1nc(Nc2ccc(S(=O)(=O)N(Cc3ccccc3)Cc3ccccc3)cc2)ccc1C(=O)c1c(F)cccc1F [4-({6-amino-5-[(2,6-difluorophenyl)carbonyl]pyridin-2-yl}amino)-N,N-dibenzylbenzene-1-sulfonamide]
> 100 | Nc1ccc(C(=O)c2cccs2)c(N)n1 [3-(thiophen-2-ylcarbonyl)pyridine-2,6-diamine]
> 100 | CCN(CC)S(=O)(=O)c1ccc(Nc2ccc(C(=O)c3ccco3)c(N)n2)cc1 [4-{[6-amino-5-(furan-2-ylcarbonyl)pyridin-2-yl]amino}-N,N-diethylbenzene-1-sulfonamide]
> 100 | Nc1ccc(C(=O)c2ccco2)c(N)n1 [3-(furan-2-ylcarbonyl)pyridine-2,6-diamine]

same assay, conditions: pH 8; 30 °C

IC50 [µM] | Compound
> 100 | Nc1nc(Nc2ccccc2NC(=O)c2ccccc2)ccc1C(=O)c1c(F)cccc1F [N-[2-({6-amino-5-[(2,6-difluorophenyl)carbonyl]pyridin-2-yl}amino)phenyl]benzamide]
> 100 | Nc1nc(Nc2ccccc2NS(=O)(=O)c2ccccc2)ccc1C(=O)c1c(F)cccc1F [N-[2-({6-amino-5-[(2,6-difluorophenyl)carbonyl]pyridin-2-yl}amino)phenyl]benzenesulfonamide]
> 100 | CC(=O)Nc1ccccc1Nc1ccc(C(=O)c2c(F)cccc2F)c(N)n1 [N-[2-({6-amino-5-[(2,6-difluorophenyl)carbonyl]pyridin-2-yl}amino)phenyl]acetamide]
> 10 | Nc1nc(Nc2ccccc2[N+](=O)[O-])ccc1C(=O)c1c(F)cccc1F [5-[(2,6-difluorophenyl)carbonyl]-2-N-(2-nitrophenyl)pyridine-2,6-diamine]
